From publication PMC10366214, “The anti-Alzheimer potential of novel spiroindolin-1,2-diazepine derivatives as targeted cholinesterase inhibitors with modified substituents” (Scientific Reports, 2023)
Entries after “also recorded” stand apart in the source; their conditions may differ.

How the values were obtained:
AChE [1] = target: T1, AChE (Homo sapiens, UniProt P22303); experiment: biochemical
Protocol: (§1) Cholinesterase inhibitory activities of all analogs were evaluated spectrometrically using the modified Ellman method as previously reported[40],[41]. […] The absorbance of each well was measured at 415 nm using a microplate reader. IC50 values and inhibition values were calculated with the software GraphPad Prism as the mean of three independent experiments and are expressed as mean ± SEM.

BChE = BChE (Homo sapiens, UniProt P06276); experiment: BChE inhibition, modified Ellman method; type: biochemical
Protocol: as §1

AChE [2] = target: T1, AChE; experiment: Enzyme kinetic study of AChE inhibition (Lineweaver-Burk, Ellman's method); type: biochemical
Protocol: As previously reported, the kinetic study of AChE was carried out at five different concentrations of compound 5l and acetylthiocholine substrate (0.1–1 mM) by Ellman's method.

[3] = test system: SH-SY5Y neuroblastoma cell line; experiment: MTT toxicity assay on SH-SY5Y; type: cell-based; settings: 72 h exposure; tested concentrations up to 50 µM
Protocol: SH-SY5Y cells were maintained in Dulbecco's modified Eagle medium with Ham's F12 medium (DMEM/F12) containing 15% fetal bovine serum100 units/ml penicillin and 100 µg/ml streptomycin. Cells were seeded into flasks containing supplemented medium and maintained at 37 °C in a humidified atmosphere of 5% CO2 and 95% air. Cell viability, virtually the mitochondrial activity of living cells, was measured by quantitative colorimetric assay with MTT, as described previously. MTT reagent, at a final concentration of 0.5 mg/ml, was added to each well at the end of the incubation period, and the plate was placed in a humidified incubator for an additional two h periods. Metabolically active cells convert the yellow MTT tetrazolium compound to a purple formazan product. Then, the insoluble formazan was dissolved with dimethylsulfoxide; colorimetric determination of MTT reduction was measured at 540 nm. Control cells treated media were taken as 100% viability.

T1 sequence (P22303 32-614): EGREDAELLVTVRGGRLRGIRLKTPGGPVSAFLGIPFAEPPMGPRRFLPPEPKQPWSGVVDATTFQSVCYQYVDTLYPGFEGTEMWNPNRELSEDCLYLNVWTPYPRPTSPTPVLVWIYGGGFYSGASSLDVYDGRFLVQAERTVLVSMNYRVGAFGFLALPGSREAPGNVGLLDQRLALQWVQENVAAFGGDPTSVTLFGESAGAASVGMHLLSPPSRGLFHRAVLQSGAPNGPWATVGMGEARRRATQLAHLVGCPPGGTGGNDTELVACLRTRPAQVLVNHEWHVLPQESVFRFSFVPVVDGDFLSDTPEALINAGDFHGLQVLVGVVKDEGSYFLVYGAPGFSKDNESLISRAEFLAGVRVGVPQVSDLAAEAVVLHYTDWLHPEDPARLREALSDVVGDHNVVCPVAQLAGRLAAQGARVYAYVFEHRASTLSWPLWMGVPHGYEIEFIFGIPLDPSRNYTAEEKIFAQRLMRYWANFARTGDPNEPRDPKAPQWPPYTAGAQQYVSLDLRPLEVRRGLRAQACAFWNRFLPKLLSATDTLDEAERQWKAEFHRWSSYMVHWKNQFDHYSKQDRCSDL
Chain of BChE (P06276 29-602): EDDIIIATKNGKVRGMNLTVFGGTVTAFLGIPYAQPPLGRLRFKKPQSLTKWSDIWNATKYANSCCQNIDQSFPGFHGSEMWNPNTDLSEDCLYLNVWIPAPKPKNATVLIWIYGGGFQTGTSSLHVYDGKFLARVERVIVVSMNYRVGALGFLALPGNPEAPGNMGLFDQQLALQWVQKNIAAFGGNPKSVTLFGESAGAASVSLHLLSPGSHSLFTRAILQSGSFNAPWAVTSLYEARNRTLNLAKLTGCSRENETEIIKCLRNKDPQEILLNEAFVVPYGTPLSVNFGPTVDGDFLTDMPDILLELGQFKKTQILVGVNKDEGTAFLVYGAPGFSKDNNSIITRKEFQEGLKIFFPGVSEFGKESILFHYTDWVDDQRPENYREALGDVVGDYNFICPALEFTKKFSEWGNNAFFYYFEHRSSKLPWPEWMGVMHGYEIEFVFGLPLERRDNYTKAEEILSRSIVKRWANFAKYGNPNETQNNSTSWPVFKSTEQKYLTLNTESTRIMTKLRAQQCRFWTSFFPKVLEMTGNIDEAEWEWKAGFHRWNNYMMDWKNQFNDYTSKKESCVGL

For `N#CC1=C(N)NNC(Nc2ccc(O)cc2)=C([N+](=O)[O-])C12C(=O)Nc1ccc([N+](=O)[O-])cc12` (stereo not shown) [Compound 5l, 3-amino-7-((4-hydroxyphenyl)amino)-5',6-dinitro-2'-oxo-1,2-dihydrospiro[[1,2]diazepine-5,3'-indoline]-4-carbonitrile], the IC50 (AChE [1]) was 3980 ± 1070 nM, the inhibition at 50 µM (AChE [1]; read-out: AChE % inhibition at 50 µM) was 87.4 ± 5.93% and the “inhibition against BChE (in words)” value (BChE) was “no significant inhibition; also recorded: inactive”. For the same molecule, the inhibition at 50 µM (BChE; read-out: BChE % inhibition at 50 µM) was 5.71 ± 2.82%, the “mode of AChE inhibition” value (AChE [2]; Lineweaver-Burk plot) was “mixed mode; also recorded: mix type inhibitor; also recorded: mix-type inhibition” and the Ki (AChE [2]; five inhibitor concentrations (1, 4, 8, 12, 24 µM), acetylthiocholine 0.1-1 mM, read-out: inhibition constant Ki against AChE) was 44 nM. For the same molecule, the “toxicity against SH-SY5Y (MTT cell viability)” value [3] was “no toxicity; also recorded: did not show neurotoxicity”.
